Measurements: US10815230B2, “Casein kinase 1 delta inhibitor” (ELECTROPHORETICS LIMITED, priority 2015, dated 2020)

Experiments:
Assay in all cases: KINOMEscan binding assay
Details in all cases: read-out: % Ctrl @ 10000 nM
PRKCQ = PRKCQ (Homo sapiens, UniProt Q04759)
ERK8 = ERK8 (Homo sapiens, UniProt Q8TD08)
RIOK2 = RIOK2 (Homo sapiens, UniProt Q9BVS4)
DYRK1B = DYRK1B (Homo sapiens, UniProt Q9Y463)
PIK3C2B = PIK3C2B (Homo sapiens, UniProt O00750)
CDK9 = CDK9 (Homo sapiens, UniProt P50750)
IRAK4 = IRAK4 (Homo sapiens, UniProt Q9NWZ3)
TGFBR2 = TGFBR2 (Homo sapiens, UniProt P37173)
EGFR (T790M) = EGFR (T790M) (Homo sapiens, UniProt P00533, T790M)
AKT2 = AKT2 (Homo sapiens, UniProt P31751)
AMPK-alpha1 = AMPK-alpha1 (Homo sapiens, UniProt Q13131)
RIPK4 = RIPK4 (Homo sapiens, UniProt P57078)
PRKCI = PRKCI (Homo sapiens, UniProt P41743)
MAK = MAK (Homo sapiens, UniProt P20794)
CAMK2D = CAMK2D (Homo sapiens, UniProt Q13557)
MET (M1250T) = MET (M1250T) (Homo sapiens, UniProt P08581, M1250T)
CSF1R-autoinhibited = CSF1R-autoinhibited (Homo sapiens, UniProt P07333)
PIM3 = PIM3 (Homo sapiens, UniProt Q86V86)
INSRR = INSRR (Homo sapiens, UniProt P14616)
ABL1 non-phosphorylated = ABL1 non-phosphorylated (Homo sapiens, UniProt P00519)
MYLK4 = MYLK4 (Homo sapiens, UniProt Q86YV6)
SYK = SYK (Homo sapiens, UniProt P43405)
S6K1 = S6K1 (Homo sapiens, UniProt P23443)
BRK = BRK (Homo sapiens, UniProt Q13882)
PIP5K2B = PIP5K2B (Homo sapiens, UniProt P78356)
FLT3-autoinhibited = FLT3-autoinhibited (Homo sapiens, UniProt P36888)
[1] = biological target: RSK4 Kin.Dom.1-N-terminal (Homo sapiens, UniProt Q9UK32)
PRP4 = PRP4 (Homo sapiens, UniProt Q13523)
ERBB3 = ERBB3 (Homo sapiens, UniProt P21860)
FGFR4 = FGFR4 (Homo sapiens, UniProt P22455)
YANK3 = biological target: T1, YANK3 (Homo sapiens, UniProt Q86UX6)
T1 construct: purchased DiscoveRx (KINOMEscan, LeadHunter Discovery services)

DCAMKL1 = DCAMKL1 (Homo sapiens, UniProt O15075)
[2] = biological target: ABL1 (E255K) phosphorylated (Homo sapiens, UniProt P00519, E255K)
CAMK2G = CAMK2G (Homo sapiens, UniProt Q13555)
NIK = NIK (Homo sapiens, UniProt Q99558)
CLK2 = CLK2 (Homo sapiens, UniProt P49760)
MEK3 = MEK3 (Homo sapiens, UniProt P46734)
CSNK1D = CSNK1D (Homo sapiens, UniProt P48730)
SNARK = SNARK (Homo sapiens, UniProt Q9H093)
[3] = biological target: RSK2 Kin.Dom.1-N-terminal (Homo sapiens, UniProt P51812)
MST4 = MST4 (Homo sapiens, UniProt Q9P289)
JNK2 = JNK2 (Homo sapiens, UniProt P45984)

CDK9, sequence (P50750 whole entry): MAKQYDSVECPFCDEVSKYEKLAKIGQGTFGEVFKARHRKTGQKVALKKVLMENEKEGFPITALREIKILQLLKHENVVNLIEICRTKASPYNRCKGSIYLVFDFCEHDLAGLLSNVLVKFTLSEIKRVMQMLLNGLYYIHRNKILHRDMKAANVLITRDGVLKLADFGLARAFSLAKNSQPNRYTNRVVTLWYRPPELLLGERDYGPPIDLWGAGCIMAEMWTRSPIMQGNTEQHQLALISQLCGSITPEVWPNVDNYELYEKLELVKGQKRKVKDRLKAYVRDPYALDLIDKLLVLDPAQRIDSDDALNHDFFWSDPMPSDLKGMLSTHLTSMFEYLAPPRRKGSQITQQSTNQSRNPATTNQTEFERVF
ABL1 (E255K) phosphorylated, sequence (P00519 whole entry E255K): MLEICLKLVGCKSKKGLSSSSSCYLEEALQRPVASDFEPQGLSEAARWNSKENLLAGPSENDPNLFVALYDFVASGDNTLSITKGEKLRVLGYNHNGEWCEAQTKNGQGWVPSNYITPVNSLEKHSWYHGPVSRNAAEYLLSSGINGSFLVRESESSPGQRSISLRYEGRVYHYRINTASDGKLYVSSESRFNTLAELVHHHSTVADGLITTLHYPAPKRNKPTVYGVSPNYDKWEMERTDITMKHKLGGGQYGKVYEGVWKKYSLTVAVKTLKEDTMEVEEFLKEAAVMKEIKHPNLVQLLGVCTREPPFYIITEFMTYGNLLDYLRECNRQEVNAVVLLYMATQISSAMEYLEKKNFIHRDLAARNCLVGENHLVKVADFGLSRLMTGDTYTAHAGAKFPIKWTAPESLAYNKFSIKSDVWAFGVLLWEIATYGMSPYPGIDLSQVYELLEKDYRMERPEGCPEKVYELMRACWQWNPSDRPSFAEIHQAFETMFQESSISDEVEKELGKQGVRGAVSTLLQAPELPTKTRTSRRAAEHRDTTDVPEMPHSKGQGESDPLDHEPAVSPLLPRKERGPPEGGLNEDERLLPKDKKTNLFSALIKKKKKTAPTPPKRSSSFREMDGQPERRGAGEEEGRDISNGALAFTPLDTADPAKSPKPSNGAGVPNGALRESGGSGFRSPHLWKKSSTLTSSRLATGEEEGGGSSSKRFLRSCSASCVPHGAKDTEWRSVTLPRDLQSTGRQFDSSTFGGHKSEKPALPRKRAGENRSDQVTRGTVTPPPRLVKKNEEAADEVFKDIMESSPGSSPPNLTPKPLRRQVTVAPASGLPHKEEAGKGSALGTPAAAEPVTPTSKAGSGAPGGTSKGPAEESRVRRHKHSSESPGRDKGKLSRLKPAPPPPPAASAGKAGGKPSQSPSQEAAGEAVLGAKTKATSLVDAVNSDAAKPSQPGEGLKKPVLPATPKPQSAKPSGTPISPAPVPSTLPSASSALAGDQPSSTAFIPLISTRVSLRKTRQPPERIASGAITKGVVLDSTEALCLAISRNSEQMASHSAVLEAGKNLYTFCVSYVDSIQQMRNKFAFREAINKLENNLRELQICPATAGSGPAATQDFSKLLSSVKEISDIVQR
DYRK1B, sequence (Q9Y463 whole entry): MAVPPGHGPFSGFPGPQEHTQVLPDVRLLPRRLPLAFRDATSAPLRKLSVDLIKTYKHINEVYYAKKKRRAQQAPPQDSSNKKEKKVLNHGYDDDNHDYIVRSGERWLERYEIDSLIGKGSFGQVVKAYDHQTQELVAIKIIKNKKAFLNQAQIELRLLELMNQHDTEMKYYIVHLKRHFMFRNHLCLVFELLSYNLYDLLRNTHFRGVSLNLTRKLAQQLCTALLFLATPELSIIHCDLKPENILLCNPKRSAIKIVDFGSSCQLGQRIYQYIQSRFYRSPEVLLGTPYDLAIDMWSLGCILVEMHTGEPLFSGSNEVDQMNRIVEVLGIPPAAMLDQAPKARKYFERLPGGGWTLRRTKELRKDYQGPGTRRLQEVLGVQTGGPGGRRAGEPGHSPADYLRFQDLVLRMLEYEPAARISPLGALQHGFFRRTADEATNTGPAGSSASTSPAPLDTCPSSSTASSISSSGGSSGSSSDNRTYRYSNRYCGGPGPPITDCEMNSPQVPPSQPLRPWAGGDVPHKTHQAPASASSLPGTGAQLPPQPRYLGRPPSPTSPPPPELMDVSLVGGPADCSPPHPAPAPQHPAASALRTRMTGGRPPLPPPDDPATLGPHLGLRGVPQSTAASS
CSNK1D, sequence (P48730 whole entry): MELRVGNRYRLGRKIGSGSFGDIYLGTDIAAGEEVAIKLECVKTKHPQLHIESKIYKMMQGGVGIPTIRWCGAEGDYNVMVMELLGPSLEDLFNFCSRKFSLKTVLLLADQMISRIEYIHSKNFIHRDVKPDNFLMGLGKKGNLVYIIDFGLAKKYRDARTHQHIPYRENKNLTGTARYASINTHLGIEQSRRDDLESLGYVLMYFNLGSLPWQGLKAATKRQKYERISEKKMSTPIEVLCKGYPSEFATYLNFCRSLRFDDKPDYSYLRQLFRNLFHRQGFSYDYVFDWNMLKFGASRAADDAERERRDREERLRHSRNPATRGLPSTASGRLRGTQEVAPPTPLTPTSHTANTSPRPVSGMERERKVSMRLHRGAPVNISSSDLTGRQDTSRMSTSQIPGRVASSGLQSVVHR
ERK8, sequence (Q8TD08 whole entry): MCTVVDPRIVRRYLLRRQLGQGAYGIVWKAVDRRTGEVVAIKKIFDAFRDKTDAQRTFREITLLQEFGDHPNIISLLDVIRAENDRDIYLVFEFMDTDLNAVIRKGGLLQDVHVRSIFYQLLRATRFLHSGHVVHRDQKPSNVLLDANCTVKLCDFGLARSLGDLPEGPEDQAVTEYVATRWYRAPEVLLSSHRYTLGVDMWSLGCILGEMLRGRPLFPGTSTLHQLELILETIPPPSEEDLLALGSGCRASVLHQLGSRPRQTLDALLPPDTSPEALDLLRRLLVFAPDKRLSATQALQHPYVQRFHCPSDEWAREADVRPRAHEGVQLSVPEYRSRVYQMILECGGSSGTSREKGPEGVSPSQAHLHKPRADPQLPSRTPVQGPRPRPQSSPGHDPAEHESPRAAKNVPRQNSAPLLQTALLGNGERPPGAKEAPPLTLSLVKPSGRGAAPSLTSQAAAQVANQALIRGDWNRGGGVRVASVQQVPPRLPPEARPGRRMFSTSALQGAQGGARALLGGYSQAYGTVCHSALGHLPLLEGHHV
MYLK4, sequence (Q86YV6 whole entry): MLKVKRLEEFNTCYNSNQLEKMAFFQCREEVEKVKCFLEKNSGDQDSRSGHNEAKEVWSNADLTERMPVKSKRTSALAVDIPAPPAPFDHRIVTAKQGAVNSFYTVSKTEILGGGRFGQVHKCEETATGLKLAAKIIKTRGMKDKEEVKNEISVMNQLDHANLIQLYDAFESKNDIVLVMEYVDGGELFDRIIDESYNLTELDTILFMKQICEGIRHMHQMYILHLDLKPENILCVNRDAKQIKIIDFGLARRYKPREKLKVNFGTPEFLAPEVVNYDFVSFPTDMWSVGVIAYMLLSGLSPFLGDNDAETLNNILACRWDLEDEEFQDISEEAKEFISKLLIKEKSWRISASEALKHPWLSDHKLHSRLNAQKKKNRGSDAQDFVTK
MAK, sequence (P20794 whole entry): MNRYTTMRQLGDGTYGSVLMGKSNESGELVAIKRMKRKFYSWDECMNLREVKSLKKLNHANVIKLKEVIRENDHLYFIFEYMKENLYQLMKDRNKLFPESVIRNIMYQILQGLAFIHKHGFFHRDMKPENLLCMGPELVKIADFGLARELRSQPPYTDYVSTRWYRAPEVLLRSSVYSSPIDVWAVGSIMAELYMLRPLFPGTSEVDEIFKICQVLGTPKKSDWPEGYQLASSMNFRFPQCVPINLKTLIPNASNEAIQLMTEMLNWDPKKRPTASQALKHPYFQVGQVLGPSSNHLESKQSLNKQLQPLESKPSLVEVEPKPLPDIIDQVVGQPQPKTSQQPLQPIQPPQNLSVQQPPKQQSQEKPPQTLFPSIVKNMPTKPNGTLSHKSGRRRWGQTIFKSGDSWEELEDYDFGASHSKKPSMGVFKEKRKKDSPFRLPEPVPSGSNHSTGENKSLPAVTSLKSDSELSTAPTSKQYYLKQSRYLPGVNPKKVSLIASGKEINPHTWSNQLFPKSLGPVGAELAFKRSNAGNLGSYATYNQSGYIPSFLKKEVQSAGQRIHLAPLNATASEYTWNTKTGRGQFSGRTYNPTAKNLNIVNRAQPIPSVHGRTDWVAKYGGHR
RSK2 Kin.Dom.1-N-terminal, sequence (P51812 68-327 limits assumed): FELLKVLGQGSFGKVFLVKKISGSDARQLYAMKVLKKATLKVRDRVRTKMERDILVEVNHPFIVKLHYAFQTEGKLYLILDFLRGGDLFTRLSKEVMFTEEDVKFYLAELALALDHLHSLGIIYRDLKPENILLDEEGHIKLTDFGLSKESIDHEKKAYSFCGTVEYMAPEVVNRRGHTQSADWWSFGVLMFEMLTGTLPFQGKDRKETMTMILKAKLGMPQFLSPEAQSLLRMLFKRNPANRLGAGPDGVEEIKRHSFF
RSK4 Kin.Dom.1-N-terminal, sequence (Q9UK32 73-330 limits assumed): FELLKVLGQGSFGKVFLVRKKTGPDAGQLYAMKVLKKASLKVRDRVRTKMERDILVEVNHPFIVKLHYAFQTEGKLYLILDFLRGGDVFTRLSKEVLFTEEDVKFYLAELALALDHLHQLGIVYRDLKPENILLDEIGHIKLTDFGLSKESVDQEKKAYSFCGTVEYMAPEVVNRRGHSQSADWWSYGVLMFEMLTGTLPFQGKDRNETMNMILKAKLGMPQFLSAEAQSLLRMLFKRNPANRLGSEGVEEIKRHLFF
ABL1 non-phosphorylated, sequence (P00519 whole entry): as the sequence (P00519 whole entry E255K) above, with K255E counted along it

`Nc1ncc(-c2nc3ccccc3o2)c(-c2ccncc2)n1` [Comparative Compound 324, 5-(1,3-benzoxazol-2-yl)-4-(pyridine-4-yl)pyrimidin-2-amine] was tested, and the remaining binding at 10 µM (PRKCQ) was 100%, the remaining binding at 10 µM (ERK8) was 99% and the remaining binding at 10 µM (RIOK2) was 87%. It also gave a remaining binding at 10 µM (DYRK1B) of 97%, a remaining binding at 10 µM (PIK3C2B) of 83% and a remaining binding at 10 µM (CDK9) of 83%. The remaining binding at 10 µM (IRAK4) was 100%, the remaining binding at 10 µM (TGFBR2) was 100% and the remaining binding at 10 µM (EGFR (T790M)) was 88%. For the same compound, the remaining binding at 10 µM (AKT2) was 100%, the remaining binding at 10 µM (AMPK-alpha1) was 98% and the remaining binding at 10 µM (RIPK4) was 65%. For the same compound, the remaining binding at 10 µM (PRKCI) was 65%, the remaining binding at 10 µM (MAK) was 86% and the remaining binding at 10 µM (CAMK2D) was 99%. The remaining binding at 10 µM (MET (M1250T)) was 97%, the remaining binding at 10 µM (CSF1R-autoinhibited) was 70% and the remaining binding at 10 µM (PIM3) was 94%. It also gave a remaining binding at 10 µM (INSRR) of 100%, a remaining binding at 10 µM (ABL1 non-phosphorylated) of 81% and a remaining binding at 10 µM (MYLK4) of 98%. The remaining binding at 10 µM (SYK) was 100%, the remaining binding at 10 µM (S6K1) was 90% and the remaining binding at 10 µM (BRK) was 99%. The remaining binding at 10 µM (PIP5K2B) was 100%, the remaining binding at 10 µM (FLT3-autoinhibited) was 95% and the remaining binding at 10 µM [1] was 85%. For the same compound, the remaining binding at 10 µM (PRP4) was 70%, the remaining binding at 10 µM (ERBB3) was 92% and the remaining binding at 10 µM (FGFR4) was 100%. For the same compound, the remaining binding at 10 µM (YANK3) was 97%, the remaining binding at 10 µM (DCAMKL1) was 41% and the remaining binding at 10 µM [2] was 33%. It also gave a remaining binding at 10 µM (CAMK2G) of 100%, a remaining binding at 10 µM (NIK) of 100% and a remaining binding at 10 µM (CLK2) of 78%. It also gave a remaining binding at 10 µM (MEK3) of 80%, a remaining binding at 10 µM (CSNK1D) of 3.8% and a remaining binding at 10 µM (SNARK) of 98%. It also gave a remaining binding at 10 µM [3] of 80%, a remaining binding at 10 µM (MST4) of 68% and a remaining binding at 10 µM (JNK2) of 18%.
Work on `CNc1c(C(N)=O)c2ccccn2c1C(=O)c1ccc(F)cc1` [Compound A, 2-methyl-amino-3-[(4-fluorophenyl)carbonyl]indolizine-1-carboxamide] yielded a remaining binding at 10 µM (PRKCQ) of 88%, a remaining binding at 10 µM (ERK8) of 98% and a remaining binding at 10 µM (RIOK2) of 66%. The remaining binding at 10 µM (DYRK1B) was 89%, the remaining binding at 10 µM (PIK3C2B) was 74% and the remaining binding at 10 µM (CDK9) was 74%. The remaining binding at 10 µM (IRAK4) was 98%, the remaining binding at 10 µM (TGFBR2) was 100% and the remaining binding at 10 µM (EGFR (T790M)) was 65%. The remaining binding at 10 µM (AKT2) was 98%, the remaining binding at 10 µM (AMPK-alpha1) was 91% and the remaining binding at 10 µM (RIPK4) was 78%. The remaining binding at 10 µM (PRKCI) was 69%, the remaining binding at 10 µM (MAK) was 59% and the remaining binding at 10 µM (CAMK2D) was 78%. The remaining binding at 10 µM (MET (M1250T)) was 83%, the remaining binding at 10 µM (CSF1R-autoinhibited) was 100% and the remaining binding at 10 µM (PIM3) was 90%. The remaining binding at 10 µM (INSRR) was 100%, the remaining binding at 10 µM (ABL1 non-phosphorylated) was 42% and the remaining binding at 10 µM (MYLK4) was 43%. The remaining binding at 10 µM (SYK) was 86%, the remaining binding at 10 µM (S6K1) was 82% and the remaining binding at 10 µM (BRK) was 92%. The remaining binding at 10 µM (PIP5K2B) was 100%, the remaining binding at 10 µM (FLT3-autoinhibited) was 87% and the remaining binding at 10 µM [1] was 64%. The remaining binding at 10 µM (PRP4) was 90%, the remaining binding at 10 µM (ERBB3) was 62% and the remaining binding at 10 µM (FGFR4) was 100%. The remaining binding at 10 µM (YANK3) was 100%, the remaining binding at 10 µM (DCAMKL1) was 44% and the remaining binding at 10 µM [2] was 15%. The remaining binding at 10 µM (CAMK2G) was 87%, the remaining binding at 10 µM (NIK) was 100% and the remaining binding at 10 µM (CLK2) was 57%. For the same compound, the remaining binding at 10 µM (MEK3) was 60%, the remaining binding at 10 µM (CSNK1D) was 1.4% and the remaining binding at 10 µM (SNARK) was 91%. It also gave a remaining binding at 10 µM [3] of 59%, a remaining binding at 10 µM (MST4) of 65% and a remaining binding at 10 µM (JNK2) of 45%.
